# Values of other authors, collected in article PMC3693451 (Bioorganic & medicinal chemistry letters, 2011).
# Key:
# [1] = 214 targets
# [2] = biological target: human CB1; conditions: read-out: human CB1 Ki
# [3] = tested on: chronic neuropathic and inflammatory pain; conditions: rat
# [4] = tested on: rat CB1, human CB1 and human CB2 receptors
# [5] = tested on: CB receptors
# [6] = biological target: CB receptors; conditions: read-out: Ki at both CB receptors
SMILES,selectivity for CB receptors in target screen [1],Ki [2] [nM],effect in chronic neuropathic and inflammatory pain models [3],agonist properties in [35S]GTPγS binding assays [4],agonist type at both CB receptors [5],Ki [6] [nM],neuroprotective properties
N#Cc1c(Oc2cccc(OS(=O)(=O)CCCC(F)(F)F)c2)cccc1C(F)(F)F [BAY 59–3074],no significant interactions with other targets,48.3,pronounced antihyperalgesic and antiallodynic properties,partial agonist,–,–,–
"O=S(=O)(CCCC(F)(F)F)Oc1cccc(Oc2cccc3c2C[C@H](CO)C3)c1 [BAY 38–7271, (−)-(R)-3-(2-hydroxymethylindanyl-4-oxy)phenyl-4,4,4-trifluoro-1-sulfonate]",–,–,–,–,full agonist,0.46 to 1.85,pronounced neuroprotective properties
